The values below come from patent publication US20090220462A1, “STEM CELLS” (Duke University, priority 2005, published 2009).

The test system of one assay is CB CD34+CD38−lin− cells. In words: 7 day culture of CB CD34+CD38−lin− cells with TSF with and without ATRA (immunophenotype, CFC, morphology). The format is cell-based, human. The protocol:
(§1) Primary human BM and CB CD34^+CD38^−lin^− cells were placed in culture with 20 ng/mL thrombopoietin, 100 ng/mL SCF, and flt-3 ligand (TSF), a cytokine combination previously found to induce human stem and progenitor cell proliferation and differentiation in vitro (Chute et al, Blood 105:576-583 (2005), Chute et al, Stem ells 22:202-215 (2004)). In order to assess whether inhibition of ALDH activity could block the differentiation of human HSCs induced to proliferate by TSF, 1-2×10^4 BM or CB CD34^+CD38^−lin^− cells were cultured×7 days with IMDM, 10% FBS and 1% pcn/strp supplemented with TSF with and without 100 μM DEAB. At day 7, the progeny of all cultures were collected, washed×2 and cell counts were performed. A minimum of n=5 experiments was performed per culture condition to allow statistical comparisons to be performed. Immunophenotypic analysis was performed on progeny cells using anti-human CD34 and CD38 mAbs (Becton Dickinson) and isotype control IgG mAbs and compared with day 0 (input) staining. Fourteen day methylcellulose CFC assays (colony forming unit-granulocyte monocyte, CFU-GM, burst forming unit-erythroid, BFU-E, and colony forming unit-mix, CFU-Mix) were performed as we have previously described (Chute et al, Blood 100:4433-4439 (2002), Chute et al, Blood 105:576-583 (2005), Chute et al, Stem ells 22:202-215 (2004)) to compare the number of lineage committed CFCs within day 0 CD34^+CD38^−lin^− cells and their progeny. Morphologic analysis of day 0 CD34^+CD38^−lin^− cells and their progeny following 7 day culture was performed using Wrights-Geimsa staining and microscopic analysis under oil immersion (100×).
In order to assess the hematopoietic effects of retinoid agonists on purified human HSCs, BM and CB CD34^+CD38^−lin^− cells were placed in culture with TSF with and without 1 μM all-trans retinoic acid (ATRA), an agonist of RAR. Total cell expansion, immunophenotype, CFC content and morphologic analysis was performed on ATRA-treated progeny and compared with both day 0 CD34^+CD38^−lin^− populations and the progeny of TSF alone to assess the impact of retinoid agonism on the differentiation of human HSCs.

For the next assay, the system named is Notch. In words: Quantitative real-time PCR of Notch in cultured CB CD34+CD38−lin− cells. The class given is cell-based, human. As to conditions: DEAB+TSF. The protocol:
(§2) Extraction of total RNA from Day 0 and Day 7 CB CD34^+ populations was done using a RNeasy Mini spin column (Qiagen, Valencia, Calif.) according to the manufacturer's recommended protocol. […] Briefly, total RNA was isolated from CD34^+CD38^−lin^− cells according to the manufacturer's instructions for the RNaqueous®-Micro (Ambion) and reversed-transcribed to cDNA using iScript™ cDNA synthesis Kit (Biorad, Hercules, Calif.). cDNA concentrations were measured with a fluorometer (Turner Designs, Sunnyvale, Calif.) using RiboGreen reagent (Invitrogen). PCR amplification reactions were performed in 13 μl and contained equal amounts of cDNAs, 6.5 μl of iQ SYBR green supermix (Bio-Rad), 0.2 μM of each forward and reverse gene-specific primers for genes of interest and the normalization gene 36B4. PCR was performed on an iCycler (Bio-Rad) according to the following cycling conditions: an initial cycle of 15 min at 95° C.; 45 cycles of 45 sec at 95° C., 15 sec at 55° C., and 15 sec at 72° C.; followed by a melt-curve analysis cycle with steps of 10 sec each at 0.5° C. increments from 60 to 95° C. Amplification rates were visualized and analyzed on ICYCLER IQ optical system software version 3.0 (Bio-Rad). Gene-specific primers were purchased from Integrated DNA Technologies (Coralville, Iowa).
In general terms: Real-time PCR tracks product formation cycle by cycle.

In another assay the test system is HOXB4. Nature of the assay: Quantitative real-time PCR of HOXB4 in cultured CB CD34+CD38−lin− cells. The format is cell-based, human. As to conditions: DEAB added to TSF (TSF alone 5-fold decrease vs day 0). The protocol: as §2
For assay [1], the system named is BM CD34+CD38−lin− cells (SRCs). Nature of the assay: Long-term repopulating assay in NOD/SCID mice, BM cells (SRC frequency). The format is in vivo, human. The protocol: (§3) NOD/SCID mice (Schulz et al, J. Immunol. 154:180-191 (1995)) were transplanted with either day 0 FACS-sorted BM or CB CD34^+CD38^−lin− HSC-enriched cells or the progeny of CD34^+CD38^−lin− cells cultured with TSF alone or TSF supplemented with 100 μM DEAB. Cells were transplanted via tail vein injection after irradiating NOD/SCID mice with 300 cGy using an X-ray irradiator as previously described (Chute et al, Blood 100:4433-4439 (2002), Chute et al, Blood 105:576-583 (2005)). Day 0 CD34^+CD38^−lin− HSCs and their progeny were co-transplanted with 2×10^4 […] to facilitate engraftment as previously described (Bonnet et al, Bone Marrow Transpl. 23:203-209 (1999), Bhatia et al, Proc. Natl. Acad. Sci. USA 94:5320-5325 (1997)).
(§4) All mice in each group were sacrificed at week 8 and marrow samples were obtained by flushing their femurs with IMDM at 4° C. Red cells were lysed using red cell lysis buffer (Sigma-Aldrich) and flow cytometric analysis of human hematopoietic engraftment was performed as previously described using commercially available mAbs against human leukocyte differentiation antigens to identify engrafted human leukocytes and discriminate their hematopoietic lineages (Chute et al, Blood 100:4433-4439 (2002), Chute et al, Blood 105:576-583 (2005), Trischmann et al, J. Hematother. 2:305-313 (1993)).
(§5) Comparisons of data from in vitro experiments were made using the Student's t test. For purposes of the limiting dilution analysis, a transplanted mouse was scored as positively engrafted if ≧0.1% of the marrow cells expressed human-CD45 via high resolution FACS analysis. This criteria is consistent with previously published criteria for human cell repopulation in NOD/SCID mice (Chute et al, Blood 100:4433-4439 (2002), Dorrell et al, Blood 95:102-110 (2000)). SRC frequency in each cell source was calculated using the maximum likelihood estimator as described previously by Taswell (J. Immunol. 126:1614-1619 (1981), Wang et al, Blood 89:3919-3924 (1997), Ueda et al, J. Clin. Invest. 105:1013-1021 (2000)). Confidence intervals for the frequencies were calculated using the profile likelihood method, and the likelihood ratio test was used to confirm the fit of the model.

For another assay, the system named is BM CD34+CD38−lin− cells. In words: Fourteen day methylcellulose CFC assay of culture progeny. The format is cell-based, human. As to conditions: DEAB+TSF 7 days (TSF alone 5-fold increase vs input). The protocol:
(§6) Primary human BM and CB CD34^+CD38^−lin^− cells were placed in culture with 20 ng/mL thrombopoietin, 100 ng/mL SCF, and flt-3 ligand (TSF), a cytokine combination previously found to induce human stem and progenitor cell proliferation and differentiation in vitro (Chute et al, Blood 105:576-583 (2005), Chute et al, Stem ells 22:202-215 (2004)). In order to assess whether inhibition of ALDH activity could block the differentiation of human HSCs induced to proliferate by TSF, 1-2×10^4 BM or CB CD34^+CD38^−lin^− cells were cultured×7 days with IMDM, 10% FBS and 1% pcn/strp supplemented with TSF with and without 100 μM DEAB. At day 7, the progeny of all cultures were collected, washed×2 and cell counts were performed. A minimum of n=5 experiments was performed per culture condition to allow statistical comparisons to be performed. Immunophenotypic analysis was performed on progeny cells using anti-human CD34 and CD38 mAbs (Becton Dickinson) and isotype control IgG mAbs and compared with day 0 (input) staining. […]

For a further assay, the system named is ALDH. In words: ALDH activity by ALDEFLUOR staining of cultured CD34+CD38− cells. The format is cell-based, human. The settings on record: 100 μM DEAB+TSF, 7 days, compared to day 0 or TSF alone, P=0.001. The protocol:
as §6

For assay [2], the system named is CB CD34+CD38−lin− cells (SRCs). Nature of the assay: Long-term repopulating assay in NOD/SCID mice, CB cells (limiting dilution, SRC frequency). The format is in vivo, human. The protocol:
as §3, §4, §5

In assay [3] the test system is BM and CB CD34+CD38−lin− cells. Nature of the assay: 7 day culture of BM and CB CD34+CD38−lin− cells with TSF with and without DEAB (cell counts, immunophenotype, morphology). The class given is cell-based, human. The protocol: as §1
Setting [4] is: progeny of DEAB+TSF cultures, cell dose 0.5-1×10^3, 8 weeks.

SMILES strings stand for the structures. Values joined by “and” are separate entries in the source; they are usually repeats but may differ in a detail not shown here. Identical values can stand only once.

As to `CC1=C(/C=C/C(C)=C/C=C/C(C)=C/C(=O)O)C(C)(C)CCC1` [ATRA, all-trans retinoic acid], the “HSC differentiation in presence of DEAB” value with CB CD34+CD38−lin− cells (1 μM ATRA+100 μM DEAB+TSF) is listed as “HSC differentiation occurred”. Further, the “number of CFCs compared to TSF alone” value in the assay with CB CD34+CD38−lin− cells (ATRA+TSF treated cultures) is recorded as “decreased”. Further, the “differentiation and maturation of human HSCs” value in the assay with CB CD34+CD38−lin− cells (ATRA, by day 7) is “induced pronounced differentiation and myeloid maturation”. In the assay with CB CD34+CD38−lin− cells (TSF+1 μM ATRA, day 7), the “CD34+CD38− cells remaining in culture” value is given as “no CD34^+CD38^− cells remained” and the “percentage of CD34+ cells relative to TSF alone” value is on record as “declined”.
As for `CCN(CC)c1ccc(C=O)cc1` [DEAB], the “Notch transcription compared to TSF alone” value with Notch was “did not alter”. Besides, the “HOXB4 expression relative to input levels” value in the assay on HOXB4 was 80% and 70%. The “huCD45+ cell repopulation” value in assay [1] (cell dose 1-2.5×10^3, TSF+DEAB progeny) is recorded as “no huCD45^+ cell repopulation was detected”. Besides, the “transplanted mice with human repopulation (FIG. 4 legend)” value in assay [1] (progeny of 5×10^3 cells after DEAB+TSF culture) was 50-80%. For the same compound, the “mean huCD45+ cell engraftment” value in assay [1] (progeny of DEAB+TSF cultures, cell dose 5×10^3) is on record as 0.1%; in assay [2] (setting [4]), 0.9%; in assay [2] (progeny of DEAB+TSF cultures, cell dose 2.5×10^3, 8 weeks (day 0 0.9%, TSF 0.7%)), 8.0%. The “mice showing huCD45+ cell engraftment” value in assay [1] (progeny of DEAB+TSF cultures, cell dose 5×10^3, 3 of 6 mice (day 0 and TSF 0 of 5)) is reported as 50%. Further, the “CFC content of progeny” value with BM CD34+CD38−lin− cells is “little CFC content”. Further, the “ALDH activity in CD34+CD38− cells” value in the assay on ALDH is “significantly reduced”. Also, in assay [2] (DEAB+TSF versus day 0 cells or TSF alone), the “fold increase in SRC frequency” value came out at 2 fold. In addition, the “multilineage differentiation in transplanted mice” value in assay [2] (mice transplanted with DEAB+TSF cultured cells, flow cytometry of BM) is “extensive CD34^+ progenitor cell, CD19^+ B lymphoid and CD 33/13^+ myeloid differentiation”. Further, the “fold higher levels of huCD45+ cell engraftment” value in assay [2] (setting [4]) is listed as 4 fold. Besides, the “mice showing huCD45+ cell repopulation at 8 weeks” value in assay [2] (progeny of DEAB+TSF cultures, cell dose 0.5-1×10^3, 9 of 17 mice (day 0 31%, TSF 18%)) is 53%. In assay [2] (progeny of DEAB+TSF cultures, cell dose 2.5×10^3), the “higher levels of huCD45+ cell engraftment versus day 0 or TSF” value is 1 log. Further, the “absolute numbers of CD34+CD38− cells compared to day 0” value in assay [3] (100 μM DEAB+TSF, 7 days (TSF alone 5-fold decrease)) is given as “maintenance”. Also, the “mean total cell expansion” value in assay [3] (100 μM DEAB+TSF, 7 days (TSF alone 15-fold)) is on record as 4 fold. Also, the “percentages of primitive CD34+CD38− cells in progeny” value in assay [3] (BM and CB cells, DEAB+TSF 7 days, compared to TSF alone, P=0.01 and P=0.02) is given as “significantly higher”. Also, in assay [3] (DEAB+TSF cultures, Wrights-Giemsa staining, data not shown), the “morphologic examination of progeny” value is “predominance of cells with high nuclear:cytoplasmic ratios and prominent nucleoli”.
